Test results published in ChEMBL document CHEMBL5512685, “Discovery of a Promising CBP/p300 Degrader XYD129 for the Treatment of Acute Myeloid Leukemia” (J Med Chem, 2024).
Active and inactive are the calls of the source. The calls are words filed in the database; no cut-off is given here.

Tests used:
[1] = target: T1, Histone acetyltransferase p300 (Homo sapiens, UniProt Q09472); test: Inhibition of p300 (unknown origin) using histone H3 (1 to 21 residues) as substrate preincubated for 15 mins followed by substrate and [3H]Ac-CoA addition and measured after 60 mins by liquid scintillation counting analysis
CREB-binding protein [2] = target: T2, CREB-binding protein (Homo sapiens, UniProt Q92793); test: Inhibition of CBP (unknown origin) using histone H3 (1 to 21 residues) as substrate preincubated for 15 mins followed by substrate and [3H]Ac-CoA addition and measured after 60 mins by liquid scintillation counting analysis
[3] = Toxicity in NOD-SCID mouse xenografted with human MOLM16 cells assessed as pathological changes in lung at 30 mg/kg, ip administered once daily for 2 weeks by H and E staining based analysis; type: organism-based; conditions: in vivo, 336 h
KG-1 = test: Antiproliferative activity against human KG-1 cells assessed as inhibition of cell growth incubated for 72 hrs by celltiter glo luminescence analysis; type: functional, cell-based; conditions: KG-1, 72 h
[4] = target: T3, Protein cereblon/CREB-binding protein (Homo sapiens) (UniProt Q92793+Q96SW2); test: Binding affinity to biotinylated CRBN (40 to 442 residues) (unknown origin)/His6-fused human CBP bromodomain (R1081 to G1197 residues) assessed as ternary complex formation incubated for 1.5 hrs by Alphascreen assay; type: protein assay
[5] = target: T4, Protein cereblon/Histone acetyltransferase p300 (Homo sapiens) (UniProt Q09472+Q96SW2); test: Binding affinity to biotinylated CRBN (40 to 442 residues) (unknown origin)/His6-fused human p300 bromodomain (A1040 to G1161 residues) assessed as ternary complex formation incubated for 1.5 hrs by Alphascreen assay; type: protein assay
[6] = Toxicity in NOD-SCID mouse xenografted with human MOLM16 cells assessed as reduction in body weight at 30 mg/kg, ip administered once daily for 2 weeks; type: organism-based; conditions: in vivo, 336 h
[7] = target: T3, Protein cereblon/CREB-binding protein (Homo sapiens); test: PROTAC activity at CRBN/CBP in human MOLM16 cells assessed as induction of CBP degradation at 333 nM incubated for 24 hrs by Western blot analysis relative to control; type: cell-based
[8] = Antiproliferative activity against human MOLM16 cells assessed as inhibition of cell growth incubated for 72 hrs by celltiter glo luminescence analysis; type: functional, cell-based, MOLM-16; conditions: MOLM16, 72 h
[9] = target: T3, Protein cereblon/CREB-binding protein (Homo sapiens); test: PROTAC activity at CRBN/CBP in human MOLM16 cells assessed as induction of CBP degradation incubated for 24 hrs by Western blot analysis; type: cell-based; conditions: dose 0-1000 nM
[10] = target: T4, Protein cereblon/Histone acetyltransferase p300 (Homo sapiens); test: PROTAC activity at CRBN/p300 in human MOLM16 cells assessed as reduction in p300 protein level at 500 nM pretreated with MG-132 for 2 hrs followed by compound treatment and measured after 18 hrs by Western blot analysis; type: cell-based
Protein cereblon = Protein cereblon (Homo sapiens, UniProt Q96SW2); test: Inhibition of biotinylated thalidomide binding to CRBN (40 to 442 residues) (unknown origin) incubated for 1 hrs by HTRF assay
[11] = Toxicity in NOD-SCID mouse xenografted with human MOLM16 cells assessed as pathological changes in liver at 30 mg/kg, ip administered once daily for 2 weeks by H and E staining based analysis; type: organism-based; conditions: in vivo, 336 h
[12] = Cytotoxicity against human HL7702 cells assessed as inhibition of cell growth incubated for 72 hrs by celltiter glo luminescence analysis; type: toxicity, cell-based; conditions: HL7702 (L02) cells
[13] = target: T4, Protein cereblon/Histone acetyltransferase p300 (Homo sapiens); test: PROTAC activity at CRBN/p300 in human MOLM16 cells assessed as reduction in p300 protein level at 500 nM pretreated with pomalidomide for 2 hrs followed by compound treatment and measured after 18 hrs by Western blot analysis; type: cell-based
[14] = target: T4, Protein cereblon/Histone acetyltransferase p300 (Homo sapiens); test: PROTAC activity at CRBN/p300 in human MOLM16 cells assessed as induction of p300 degradation at 333 nM incubated for 24 hrs by Western blot analysis relative to control; type: cell-based
MV4-11 [15] = test: Potency index, ratio of Y08207 IC50 to test compound IC50 for antiproliferative activity against human MV4-11 cells assessed as inhibition of cell growth incubated for 120 hrs by celltiter glo luminescence analysis; type: functional
[16] = target: T4, Protein cereblon/Histone acetyltransferase p300 (Homo sapiens); test: PROTAC activity at CRBN/p300 in human MOLM16 cells assessed as induction of p300 degradation at 500 nM by Western blot analysis; type: cell-based; conditions: time 0-24 hrs, TDE = time-dependent effect
[17] = target: T3, Protein cereblon/CREB-binding protein (Homo sapiens); test: In vivo PROTAC activity at CRBN/CBP in NOD-SCID mouse xenografted with human MOLM16 cells assessed as reduction in CBP level in tumor at 30 mg/kg, ip administered once daily for 2 weeks and measured 1 day post last dose by Western blot analysis; type: functional, organism-based; conditions: time 15.0 day
[18] = Toxicity in NOD-SCID mouse xenografted with human MOLM16 cells assessed as pathological changes in heart at 30 mg/kg, ip administered once daily for 2 weeks by H and E staining based analysis; type: organism-based; conditions: in vivo, 336 h
[19] = Toxicity in NOD-SCID mouse xenografted with human MOLM16 cells assessed as pathological changes in spleen at 30 mg/kg, ip administered once daily for 2 weeks by H and E staining based analysis; type: organism-based; conditions: in vivo, 336 h
[20] = target: T1, Histone acetyltransferase p300; test: Inhibition of C-terminal biotinylated tetra-acetylated histone peptide H4 binding to His6-fused human p300 bromodomain (A1040 to G1161 residues) incubated for 1 hrs by HTRF assay
[21] = target: T3, Protein cereblon/CREB-binding protein (Homo sapiens); test: PROTAC activity at CRBN/CBP in human MOLM16 cells assessed as reduction in CBP protein level at 500 nM measured after 18 hrs by Western blot analysis; type: cell-based
[22] = Antitumor activity against human MOLM16 cells xenografted in NOD-SCID mouse assessed as tumor growth inhibition at 30 mg/kg, ip administered once daily for 2 weeks and measured every other day by caliper method relative to control; type: functional, MOLM-16; conditions: MOLM16, 336 h, read-out: TGI
[23] = target: T4, Protein cereblon/Histone acetyltransferase p300 (Homo sapiens); test: PROTAC activity at CRBN/p300 in human MOLM16 cells assessed as induction of p300 degradation incubated for 24 hrs by Western blot analysis; type: cell-based; conditions: dose 0-1000 nM
[24] = target: T3, Protein cereblon/CREB-binding protein (Homo sapiens); test: PROTAC activity at CRBN/CBP in human MOLM16 cells assessed as reduction in CBP protein level at 500 nM pretreated with MG-132 for 2 hrs followed by compound treatment and measured after 18 hrs by Western blot analysis; type: cell-based
[25] = Toxicity in NOD-SCID mouse xenografted with human MOLM16 cells assessed as pathological changes in kidney at 30 mg/kg, ip administered once daily for 2 weeks by H and E staining based analysis; type: organism-based; conditions: in vivo, 336 h
MV4-11 [26] = test: Antiproliferative activity against human MV4-11 cells assessed as inhibition of cell growth incubated for 120 hrs by celltiter glo luminescence analysis; type: functional, cell-based; conditions: MV4-11, 120 h
Mus musculus = test: In vivo PROTAC activity at CRBN/p300 in NOD-SCID mouse xenografted with human MOLM16 cells assessed as reduction in p300 level in tumor at 30 mg/kg, ip administered once daily for 2 weeks and measured 1 day post last dose by Western blot analysis; type: functional, organism-based; conditions: time 15.0 day
CREB-binding protein [27] = target: T2, CREB-binding protein; test: Inhibition of C-terminal biotinylated tetra-acetylated histone peptide H4 binding to His6-fused human CBP bromodomain (R1081 to G1197 residues) incubated for 1 hrs by HTRF assay
[28] = target: T3, Protein cereblon/CREB-binding protein (Homo sapiens); test: PROTAC activity at CRBN/CBP in human MOLM16 cells assessed as reduction in CBP protein level at 500 nM pretreated with pomalidomide for 2 hrs followed by compound treatment and measured after 18 hrs by Western blot analysis; type: cell-based
[29] = target: T4, Protein cereblon/Histone acetyltransferase p300 (Homo sapiens); test: PROTAC activity at CRBN/p300 in human MOLM16 cells assessed as reduction in p300 protein level at 500 nM measured after 18 hrs by Western blot analysis; type: cell-based
[30] = target: T3, Protein cereblon/CREB-binding protein (Homo sapiens); test: PROTAC activity at CRBN/CBP in human MOLM16 cells assessed as induction of CBP degradation at 500 nM by Western blot analysis; type: cell-based; conditions: time 0-24 hrs, TDE = time-dependent effect

Structure (SMILES): CNC(=O)Nc1ccc2c(c1)CC[C@@]21OC(=O)N(CC(=O)N2Cc3cc(F)ccc3OC[C@H]2C2CC2)C1=O
- IC50 [1]: 0.5 nM
- IC50 (CREB-binding protein [2]): 11 nM

Structure (SMILES): CC(=O)c1cc(C(=O)Nc2cc(CO)cc(-c3cnn(C)c3)c2F)c2cc(OCC(=O)NCCCCNc3cccc4c3C(=O)N(C3CCC(=O)NC3=O)C4=O)ccn12 (stereo not drawn)
- Activity [3]: Non-Toxic
- IC50 (KG-1): 570 nM
- Activity [4]: Active
- Activity [5]: Active
- Activity [6]: Non-Toxic
- Activity [7]: 100%
- IC50 [8]: 7 nM
- Activity [9]: Dose-Dependent Effect
- Activity [10]: inactive
- IC50 (Protein cereblon): 180 nM
- Activity [11]: Non-Toxic
- IC50 at 72 h [12]: > 100 µM
- Activity [13]: inactive
- Activity [14]: 100%
- Ratio IC50 (MV4-11 [15]): 140
- Activity [16]: Tde
- Activity [17]: Active
- Activity [18]: Non-Toxic
- Activity [19]: Non-Toxic
- IC50 [20]: 30 nM
- Activity [21]: Active
- inhibition in vivo at 30 mg/kg [22]: 60%
- Activity [23]: Dose-Dependent Effect
- Activity [24]: inactive
- Activity [25]: Non-Toxic
- IC50 (MV4-11 [26]): 44 nM
- Activity (Mus musculus): Active
- IC50 (CREB-binding protein [27]): 21 nM
- Activity [28]: inactive
- Activity [29]: Active
- Activity [30]: Tde
